Experimental data published in US20230271965A1, “BICYCLIC HETEROARENES AND METHODS OF THEIR USE” (Kineta, Inc., priority 2020, published 2023).

Experiments:
[1] = target: T1, full-length human PIKFYVE (GST-PIKFYVE) (Homo sapiens, UniProt Q9Y2I7, L932S/Q1183K/Q995L/S1033A/S696N/T998S); assay: PIKfyve biochemical assay (ADP-Glo Kinase assay, Carna Biosciences); details: ADP-Glo, full-length human PIKFYVE; read-out: hPIKfyve IC50
T1 construct: A full-length human PIKFYVE [1-2098 (end) amino acids; purchased Carna Biosciences; host or cells: baculovirus expression system
Description: PIKfyve Biochemical Assay. The biochemical PIKFyve inhibition assays were run by Carna Biosciences according to proprietary methodology based on the Promega ADP-Glo™ Kinase assay. […] GST-PIKFYVE was purified by using glutathione sepharose chromatography and used in an ADP-Glo™ Kinase assay (Promega). Reactions were set up by adding the test compound solution, substrate solution, ATP solution and kinase solution, each at 4×final concentrations. Reactions were prepared with assay buffer (50 mM MOPS, 1 mM DTT, pH7.2), mixed, and incubated in black 384 well polystyrene plates for 1 hour at room temperature. ADP-Glo™ reagent was then added for 40 minutes, followed by kinase detection reagent for an additional 40 minutes. The kinase activity was evaluated by detecting relative light units on a luminescence plate reader. Samples were run in duplicate from 10 μM to 3 nM. […] IC50 values were calculated from concentration vs % inhibition curves by fitting to a four-parameter logistic curve.
The biochemical PIKFyve inhibition assays were run by Carna Biosciences according to proprietary methodology based on the Promega ADP-Glo™ Kinase assay. […] GST-PIKFYVE was purified by using glutathione sepharose chromatography and used in an ADP-Glo™ Kinase assay (Promega).
Reactions were set up by adding the test compound solution, substrate solution, ATP solution and kinase solution, each at 4×final concentrations. Reactions were prepared with assay buffer (50 mM MOPS, 1 mM DTT, pH7.2), mixed, and incubated in black 384 well polystyrene plates for 1 hour at room temperature. ADP-Glo™ reagent was then added for 40 minutes, followed by kinase detection reagent for an additional 40 minutes. The kinase activity was evaluated by detecting relative light units on a luminescence plate reader. Samples were run in duplicate from 10 uM to 3 nM. […] IC50 values were calculated from concentration vs % inhibition curves by fitting to a four-parameter logistic curve.

[2] = target: T2, PIKfyve (PIKFYVE-NanoLuc fusion in HEK293 cells) (Homo sapiens, UniProt Q9Y2I7); assay: NanoBRET TE Intracellular Kinase Assay, K-8 (Promega) cell-based assay; details: 2 hours, read-out: hPIKfyve BRET IC50
T2 construct: containing a full-length PIKfyve according to manufacturer's specifications; host or cells: HEK293
Description: NanoBRET™ TE Intracellular Kinase Assay, K-8 (Promega) Cell-Based Assay. Intracellular inhibition of PIKfyve was assayed using Promega's NanoBRET™ TE Intracellular Kinase Assay, K-8 according to manufacturer's instructions. A dilution series of test compounds was added for 2 hours to HEK293 cells transfected for a minimum of 20 hours with PIKFYVE-NanoLuc® Fusion Vector (Promega) containing a full-length PIKfyve according to manufacturer's specifications in a 96-well plate. Kinase activity was detected by addition of a NanoBRET™ tracer reagent, which was a proprietary PIKfyve inhibitor appended to a fluorescent probe (BRET, bioluminescence resonance energy transfer). Test compounds were tested at concentrations of 10, 3, 1, 0.3, 0.1, 0.03, 0.01, 0.003 μM. BRET signals were measured by a GloMax® Discover Multimode Microplate Reader (Promega) using 0.3 sec/well integration time, 450BP donor filter and 600LP acceptor filters. Active test compounds that bound PIKfyve and displaced the tracer reduced BRET signal. IC50 values were then calculated by fitting the data to the normalized BRET ratio.

FAB1 TDP-43 yeast strain = assay: Propidium iodide viability assay, control FAB1 TDP-43 yeast strain; assay type: cell-based; details: across a range of compound concentrations (only 0.23 μM is shown), FIG. 5
Description: Generation of TDP-43 yeast model expressing human PIKfyve. Human PIKFYVE (“entry clone”) was cloned into pAG416GPDccdB (“destination vector”) according to standard Gateway cloning protocols (Invitrogen, Life Technologies). The resulting pAG416GPD-PIKFYVE plasmids were amplified in E. coli and plasmid identity confirmed by restriction digest and Sanger sequencing. […]
Transformed yeast were plated on solid agar plates with complete synthetic media lacking uracil (CSM-ura) and containing 2% glucose. […] Multiple independent isolates were further evaluated for cytotoxicity and TDP-43 expression levels.
Viability Assay. A control yeast strain with the wild-type yeast FAB1 gene and TDP-43 (“FAB1 TDP-43”, carries empty pAG416 plasmid), and the “PIKFYVE TDP-43” yeast strain, were assessed for toxicity using a propidium iodide viability assay. […] Wells containing DMSO alone were also evaluated as controls for compound effects. […]
Upon the completion of incubation, cultures were assayed for viability using propidium iodide (PI) to stain for dead/dying cells. […] A benchtop flow cytometer (Miltenyi MACSquant) was then used to assess red fluorescence ([…]), forward scatter, and side scatter (with following settings: gentle mix, high flow rate, fast measurement, 10,000 events). […]

[3] = test system: PIKFYVE TDP-43 yeast strain; assay: Propidium iodide viability assay, PIKFYVE TDP-43 yeast strain; assay type: cell-based; details: 0.23 μM, FIG. 6
Source text: Generation of TDP-43 yeast model expressing human PIKfyve. Human PIKFYVE (“entry clone”) was cloned into pAG416GPDccdB (“destination vector”) according to standard Gateway cloning protocols (Invitrogen, Life Technologies). The resulting pAG416GPD-PIKFYVE plasmids were amplified in E. coli and plasmid identity confirmed by restriction digest and Sanger sequencing. Lithium acetate/polyethylene glycol-based transformation was used to introduce the above PIKFYVE plasmid into a BY4741 yeast strain auxotrophic for the ura3 gene and deleted for two transcription factors that regulate the xenobiotic efflux pumps, a major efflux pump, and FAB1, the yeast ortholog of PIKFYVE (MATa, snq2::KILeu2; pdr3::KIura3; pdr1::NATMX; fab1::G418^R, his3; leu2; ura3; met15; LYS2+) (FIG. 2).
Transformed yeast were plated on solid agar plates with complete synthetic media lacking uracil (CSM-ura) and containing 2% glucose. Individual colonies harboring the control or PIKFYVE TDP-43 plasmids were recovered. A plasmid containing wild-type TDP-43 under the transcriptional control of the GAL1 promoter and containing the hygromycin-resistance gene as a selectable marker was transformed into the fab1::G418^R pAG416GPD-PIKFYVE yeast strain (FIG. 1). Transformed yeast were plated on CSM-ura containing 2% glucose and […] after overnight recovery in media lacking antibiotic. Multiple independent isolates were further evaluated for cytotoxicity and TDP-43 expression levels.
Viability Assay. A control yeast strain with the wild-type yeast FAB1 gene and TDP-43 (“FAB1 TDP-43”, carries empty pAG416 plasmid), and the “PIKFYVE TDP-43” yeast strain, were assessed for toxicity using a propidium iodide viability assay. Both yeast strains were transferred from solid CSM-ura/2% glucose agar plates into 3 mL of liquid CSM-ura/2% glucose media for 6-8 hours at 30° C. with aeration. Yeast cultures were then diluted to an optical density at 600 nm wavelength (OD600) of 0.005 in 3 mL of CSM-ura/2% raffinose and grown overnight at 30° C. with aeration to an OD600 of 0.3-0.8. Log-phase overnight cultures were diluted to OD600 of 0.005 in CSM-ura containing either 2% raffinose or galactose and 150 μL dispensed into each well of a flat bottom 96-well plates. Compounds formulated in 100% dimethyl sulfoxide (DMSO) were serially diluted in DMSO and 1.5 μL diluted compound transferred to the 96-well plates using a multichannel pipet. Wells containing DMSO alone were also evaluated as controls for compound effects. Tested concentrations ranged from 15 μM to […]. Cultures were immediately mixed to ensure compound distribution and covered plates incubated at 30° C. for 24 hours in a stationary, humified incubator.
Upon the completion of incubation, cultures were assayed for viability using propidium iodide (PI) to stain for dead/dying cells. A working solution of PI was made where, for each plate, 1 μL of 10 mM PI was added to 10 mL of CSM-ura (raffinose or galactose). The final PI solution (50 μL/well) was dispensed into each well of a new round bottom 96-well plate. The overnight 96-well assay plate was then mixed with a multichannel pipet and 50 μL transferred to the PI-containing plate. This plate was then incubated for 30 minutes at 30° C. in the dark. A benchtop flow cytometer (Miltenyi MACSquant) was then used to assess red fluorescence ([…]), forward scatter, and side scatter (with following settings: gentle mix, high flow rate, fast measurement, 10,000 events). Intensity histograms were then gated for “PI-positive” or “PI-negative” using the raffinose and galactose cultures treated with DMSO as controls. The DMSO controls for raffinose or galactose-containing cultures were used to determine the window of increased cell death and this difference set to 100. All compounds were similarly gated and then compared to this maximal window to establish the percent reduction in PI-positive cells.

[4] = test system: PIKFYVE TDP-43 yeast strain; assay: as above; assay type: cell-based; details: concentrations ranging from 0.5 mM to less than 100 nM

T2 sequence (Q9Y2I7 whole entry, the tested form may be a part): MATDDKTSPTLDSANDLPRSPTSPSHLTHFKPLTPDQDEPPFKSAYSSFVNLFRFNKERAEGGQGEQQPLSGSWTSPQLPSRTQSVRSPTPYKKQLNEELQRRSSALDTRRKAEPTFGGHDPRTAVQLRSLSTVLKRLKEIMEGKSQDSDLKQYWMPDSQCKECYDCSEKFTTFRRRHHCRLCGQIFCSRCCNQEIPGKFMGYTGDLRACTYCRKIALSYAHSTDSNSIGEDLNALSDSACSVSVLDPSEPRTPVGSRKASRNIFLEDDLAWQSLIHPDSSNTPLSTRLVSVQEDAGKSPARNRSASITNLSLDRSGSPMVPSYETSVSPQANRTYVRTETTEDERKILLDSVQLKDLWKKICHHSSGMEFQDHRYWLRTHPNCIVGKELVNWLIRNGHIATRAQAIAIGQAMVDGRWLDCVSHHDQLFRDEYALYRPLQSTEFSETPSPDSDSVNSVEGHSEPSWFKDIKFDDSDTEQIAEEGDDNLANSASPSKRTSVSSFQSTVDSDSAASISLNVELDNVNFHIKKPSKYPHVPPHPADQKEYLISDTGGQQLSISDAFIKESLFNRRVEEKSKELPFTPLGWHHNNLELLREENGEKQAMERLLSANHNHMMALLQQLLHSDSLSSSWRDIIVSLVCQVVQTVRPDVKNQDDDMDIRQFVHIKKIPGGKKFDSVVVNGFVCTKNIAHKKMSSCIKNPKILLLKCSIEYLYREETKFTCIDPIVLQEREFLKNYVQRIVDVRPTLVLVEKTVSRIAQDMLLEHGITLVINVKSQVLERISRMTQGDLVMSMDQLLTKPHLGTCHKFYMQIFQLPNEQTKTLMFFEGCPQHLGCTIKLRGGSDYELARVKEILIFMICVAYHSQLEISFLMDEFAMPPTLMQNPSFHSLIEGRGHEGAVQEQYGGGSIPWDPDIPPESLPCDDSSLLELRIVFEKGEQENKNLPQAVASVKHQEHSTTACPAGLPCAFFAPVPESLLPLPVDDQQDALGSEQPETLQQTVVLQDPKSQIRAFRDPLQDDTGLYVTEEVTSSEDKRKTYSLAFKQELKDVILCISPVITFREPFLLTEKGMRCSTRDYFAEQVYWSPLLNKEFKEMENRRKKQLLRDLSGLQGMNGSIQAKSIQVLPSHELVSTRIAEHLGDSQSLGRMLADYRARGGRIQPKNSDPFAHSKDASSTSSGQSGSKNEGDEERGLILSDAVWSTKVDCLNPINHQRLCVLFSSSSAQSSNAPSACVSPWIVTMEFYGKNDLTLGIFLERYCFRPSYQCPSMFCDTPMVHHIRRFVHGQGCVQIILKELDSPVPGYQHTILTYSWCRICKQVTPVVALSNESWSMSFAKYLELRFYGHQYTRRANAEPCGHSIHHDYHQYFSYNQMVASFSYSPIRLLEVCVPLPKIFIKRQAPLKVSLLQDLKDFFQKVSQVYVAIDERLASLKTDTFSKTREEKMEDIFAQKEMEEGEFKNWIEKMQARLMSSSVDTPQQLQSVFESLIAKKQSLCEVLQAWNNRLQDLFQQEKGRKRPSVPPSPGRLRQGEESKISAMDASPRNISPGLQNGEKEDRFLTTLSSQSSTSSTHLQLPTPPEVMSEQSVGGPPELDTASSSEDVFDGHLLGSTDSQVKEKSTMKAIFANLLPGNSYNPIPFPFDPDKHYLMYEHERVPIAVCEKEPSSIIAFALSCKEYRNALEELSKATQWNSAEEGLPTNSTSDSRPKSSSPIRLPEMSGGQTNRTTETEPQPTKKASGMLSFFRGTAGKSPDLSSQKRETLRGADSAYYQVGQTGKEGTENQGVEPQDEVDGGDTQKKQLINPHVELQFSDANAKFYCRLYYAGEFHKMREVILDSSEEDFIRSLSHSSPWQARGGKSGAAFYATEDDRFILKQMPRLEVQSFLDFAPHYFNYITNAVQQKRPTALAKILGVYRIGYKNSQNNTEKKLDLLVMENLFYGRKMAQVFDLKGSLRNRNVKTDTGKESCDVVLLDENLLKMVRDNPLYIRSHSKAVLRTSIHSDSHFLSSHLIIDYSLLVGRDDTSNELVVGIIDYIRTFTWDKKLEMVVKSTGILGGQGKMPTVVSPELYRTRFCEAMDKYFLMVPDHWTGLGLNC
T1 sequence (Q9Y2I7 whole entry S696N/L932S/Q995L/T998S/S1033A/Q1183K): as the sequence (Q9Y2I7 whole entry, the tested form may be a part) above, with S696N, L932S, Q995L, T998S, S1033A, Q1183K counted along it

Row | Structure (SMILES) | IC50 [1] [nM] | IC50 [2] [nM] | further results
1 | Cc1cccc(/C=N/Nc2cc(N3CCOCC3)n3nc(-c4ccncc4)cc3n2)c1 [APY0201] | – | – | increase in viable cells in FAB1 TDP-43 (FAB1 TDP-43 yeast strain): no increase in viable cells; population of propidium iodide-positive dead cells in PIKFYVE TDP-43 [3]: reduced the population of propidium iodide-positive dead cells; viability in PIKFYVE TDP-43 model [4]: increased viability
2 | c1ccc(N2CCc3c(OCc4cccnc4)nc(N4CCOCC4)nc32)cc1 [Compound 3] | – | 10 to 100 | –
3 | c1ccc(N2CCc3c(Oc4cccnc4)nc(N4CCOCC4)nc32)cc1 [Compound 22, 4-(7-phenyl-4-(pyridin-3-yloxy)-6,7-dihydro-5H-pyrrolo[2,3-d]pyrimidin-2-yl)morpholine] | < 10 | 100 to 1000 | –
4 | c1cncc(Oc2nc(N3CCOCC3)nc3c2CCN3c2cccnc2)c1 [Compound 24, 4-(7-(pyridin-3-yl)-4-(pyridin-3-yloxy)-6,7-dihydro-5H-pyrrolo[2,3-d]pyrimidin-2-yl)morpholine] | 10 to 100 | 1000 to 10000 | –
5 | OCC(O)COc1nc(N2CCOCC2)nc2c1CCN2c1ccccc1 (stereo not drawn) [Compound 25, 3-((2-morpholino-7-phenyl-6,7-dihydro-5H-pyrrolo[2,3-d]pyrimidin-4-yl)oxy)propane-1,2-diol] | – | 100 to 1000 | –
6 | c1ccc(N2CCc3c(-c4ccncc4)nc(N4CCOCC4)nc32)cc1 [Compound 41, 4-(7-phenyl-4-(pyridin-4-yl)-6,7-dihydro-5H-pyrrolo[2,3-d]pyrimidin-2-yl)morpholine] | < 10 | 10 to 100 | –

Second part, led by results:

Row | IC50 [1] [nM] | IC50 [2] [nM] | Structure (SMILES) | further results
7 | 100 to 1000 | 1000 to 10000 | CN1CCC(COc2nc(N3CCOCC3)nc3c2CCN3c2cccnc2)CC1 [Compound 111] | –
8 | – | 10 to 100 | c1ccc(N2CCc3c(OCCc4ccccn4)nc(N4CCOCC4)nc32)cc1 [Compound 1, 4-(7-phenyl-4-(2-(pyridin-2-yl)ethoxy)-6,7-dihydro-5H-pyrrolo[2,3-d]pyrimidin-2-yl)morpholine] | –
9 | – | 100 to 1000 | c1ccc(N2CCc3c(OCc4cccnn4)nc(N4CCOCC4)nc32)cc1 [Compound 5] | –
10 | – | 100 to 1000 | N#Cc1ccc(N2CCc3c(OCc4cccnc4)nc(N4CCOCC4)nc32)cc1 [Compound 21, 4-(2-morpholino-4-(pyridin-3-ylmethoxy)-5H-pyrrolo[2,3-d]pyrimidin-7(6H)-yl)benzonitrile] | –
11 | < 10 | 100 to 1000 | c1cncc(N2CCc3c(OCCC4CCCO4)nc(N4CCOCC4)nc32)c1 (stereo not drawn) [Compound 10] | –
